Data on 94 compounds can be found in ChEMBL document CHEMBL3301361, “Experimental in vitro DMPK and physicochemical data on a set of publicly disclosed compounds”.

Broadly, the logD is the decadic logarithm of the distribution of all forms, ionised or not, between an organic phase and buffer at a given pH. A lower logD goes with lower lipophilicity.

This data set is described as follows: physchem. To be noted: octan-1-ol/water, pH 7.4, LogD7.4.

The compound `Cc1cccc(C(=O)N2CCC(C(=O)c3ccc(F)cc3)CC2)c1` showed a logD of 3.4.
The compound `CCCS(=O)(=O)c1ccc(C(CNS(=O)(=O)c2ccc(C(F)(F)F)cc2)N2CCCCCC2)cc1` (centres undefined) displayed a logD of 3.32.
To `Cc1cc(C)c2c(N)c(C(=O)NCc3ccccc3)sc2n1` belongs 3.41; to `CC(C)Cn1c(=O)n(C)c(=O)c2c(C(=O)N3CC=CC3)c(Cc3ccccc3C(F)(F)F)sc21`, 3.53.
The compound `Cc1cc2n[nH]c(=O)n2c2cc(-c3cccc(CO)c3)ccc12` gave a pH-dependent lipophilicity (logD) of 3.36.
For `COc1ccc(-c2c(C)c3ccc(OC)cc3oc2=O)cc1` the value was 3.31; for `CNC(=O)c1ccc(CCC(COc2ccc(-c3cccc([N+](=O)[O-])c3)cc2)N2C(=O)CSC2=O)cc1` (centres undefined), 3.5; for `O=C(COCc1ccccn1)N1CCN(c2ccc(Cl)cc2Cl)CC1`, 3.47.
Take `Nc1ccc(Cl)c(C(=O)NCC23CC4CC(CC(C4)C2)C3)c1`: the logD worked out at 3.45. This logD and that of the compound before are within 0.2 log units of each other.
Consider `CSc1ncccc1C(=O)NCCc1ccc(Cl)cc1`, for which the logD stood at 3.31.
For the compound `CCCS(=O)(=O)N1CCCC(C(=O)N2CCC(Cc3ccccc3)CC2)C1` (centres undefined), the logD was 3.44.
Consider `O=c1ccoc2cc(OCc3ccccc3)ccc12`, for which the logD came to 3.33. The logD values of the last two compounds are within 0.2 log units of each other.
To `O=C(Nc1ccccc1)c1cc2ccccc2o1` belongs 3.44; to `O=C(Nc1nc(-c2ccccc2)cs1)c1cccnc1`, 3.62.
Compound `COc1ccc(C(=O)Nc2cccc(NC(=O)c3ccc(OC)c(OC)c3)n2)cc1OC` came in with a logD of 3.5.
`COc1ccc(Cl)cc1NC(=O)CCS(=O)(=O)c1ccc(Br)cc1`: the logD was found to be 3.4.
For `CN(C)c1ccnc2sc(C(=O)NCc3ccccc3)c(N)c12` the value was 3.62.
For the compound `Cc1[nH]c2nc(NCc3cccc(Cl)c3)nn2c(=O)c1Cc1ccccc1`, the logD came to 3.6.
The compound `Clc1cccc(-n2nnnc2NCc2ccccc2Oc2ccccn2)c1Cl` displayed a log distribution coefficient (logD) of 3.62. This logD and that of the compound before are within 0.2 log units of each other.
For `CN1CCOc2cc(COc3ccccc3)cnc21`, the logD came to 3.3.
`Cn1cnc2cc(C#Cc3ccccc3)cnc21`: the logD was 3.5.
For the compound `O=C1CCOc2nc(C#CC3CCCCC3)ccc21`, the log distribution coefficient (logD) worked out at 3.3.
Turning to `CC[C@H](NC(=O)c1c([S+](C)[O-])c(-c2cccs2)nc2ccccc12)c1ccccc1` (some centres undefined), the log distribution coefficient (logD) stood at 3.56.
Consider `CC[C@H](NC(=O)c1c([S+]([O-])CC)c(-c2ccccc2)nc2ccccc12)c1ccccc1` (some centres undefined), for which the logD stood at 3.45. The logD values of the last two compounds are within 0.2 log units of each other.
`COc1cc(Nc2nccc(Oc3cnc4ccccc4c3)n2)cc(OC)c1OC` registered a pH-dependent lipophilicity (logD) of 3.41.
The compound `CN(c1ccccc1)c1ccnc(Nc2cc(N3CCOCC3)cc(N3CCOCC3)c2)n1` had a logD of 3.47.
For `Cc1nc(C(=O)[C@@H](C)Oc2ccc(SCCCCCc3ccccc3)cc2)sc1CCCC(=O)O`, the log distribution coefficient (logD) came to 3.58.
For `COc1ccc(OC)c(-c2c(F)ccc3c(N)c(C(=O)NC4CC4)nnc23)c1` the value was 3.47; for `COc1ccc(-c2c(F)ccc3c(N)c(C(=O)NC4CC4)nnc23)c(OC)n1`, 3.37; for `COc1ncc(C)cc1-c1cccc2c(N)c(C(=O)NC3CC3)nnc12`, 3.4.
For the compound `O=C1O[C@@H](Cn2nncc2F)CN1c1ccc(C2=CCS(=O)(=O)CC2)c(F)c1`, the logD came out at 3.54.
In the case of `COc1cc(N2CCN(C(C)=O)CC2)ccc1Nc1ncc(Cl)c(-c2cnc3c(OC)cccn23)n1`, the logD amounted to 3.5.
As for `COc1cc(N2CCN(C(C)=O)CC2)ccc1Nc1ncc(Cl)c(-c2cnc3cc(C)ccn23)n1`, the logD amounted to 3.3.
`COc1ccc(C(=O)Nc2cc(NC(=O)c3cccc(N(C)C)c3)ccc2Br)cc1OC` displayed a logD of 3.49.
For `N#Cc1cc(O)cc2nc(-c3ccc(O)cc3)oc12` the value was 3.6; for `N#Cc1c(-c2ccc(-c3ccccc3C(F)(F)F)cc2)nc2ccncc2c1O`, 3.3.
`CCc1ccccc1-c1ccc(-c2nc3ccncc3c(O)c2C#N)cc1` registered a logD of 3.5.
As to `O=c1[nH]c(-c2ccccc2)nc2cc(Cl)ccc12`, the logD came to 3.31.
For `CCOc1cccc(Nc2nnc(C(=O)Nc3ccc(N4CCOCC4)nc3)o2)c1` the value was 3.6; for `O=C(Nc1ccc(Cl)c(Cl)c1)N1CCN(C[C@H]2CN(C3CC3)CCO2)CC1`, 3.32.
In turn, `CC#CCn1c(=O)c2c(-c3cncn3C)n(Cc3ccnc4ccc(Cl)cc34)nc2n(CC2CC2)c1=O` displayed a logD of 3.61.
Turning to `Cn1cncc1-c1c2c(=O)n(C3CC3)c(=O)n(CC3CC3)c2nn1Cc1ccnc2ccc(Cl)cc12`, the logD came out at 3.53.
For `C#CC(C)n1c(=O)c2c(-c3cncn3C)n(Cc3ccnc4ccc(Cl)cc34)nc2n(CC2CC2)c1=O` (centres undefined) the value was 3.59; for `Cn1cc(C#N)cc1-c1c2c(=O)n(CC#CCn3cncn3)c(=O)n(CC3CC3)c2nn1Cc1ccnc2ccc(Cl)cc12`, 3.43; for `Cn1cc(C#N)cc1-c1c2c(=O)n(CC#N)c(=O)n(CC3CC3)c2nn1Cc1ccnc2ccc(Cl)cc12`, 3.33.
For `COc1cc(CCc2cc(Nc3ccnc(NCc4ccccn4)n3)[nH]n2)cc(OC)c1` the value was 3.5; for `C[C@H]1O[C@@H](n2cnc3c(N)nc(OCC45CC6CC(CC(C6)C4)C5)nc32)[C@H](O)[C@@H]1O`, 3.58; for `CC(C)c1ccccc1Cc1cc(C(=O)Nc2ccc(S(=O)(=O)c3ccccc3C(C)(C)C)cc2)c(O)c(O)c1O`, 3.44.
Regarding `CC(C)OC(=O)N1CCC(Oc2ncnc3c2CCN3c2ccc(S(C)(=O)=O)cc2F)CC1`, the pH-dependent lipophilicity (logD) turned out to be 3.4.
To `Cc1ccc(Oc2cccc(CN3CCCC(n4cc(C)c(=O)[nH]c4=O)C3)c2)cc1` (centres undefined) belongs 3.38; to `Cc1cn(C2CCCN(Cc3cccc(Oc4ccc(Cl)cc4)c3)C2)c(=O)[nH]c1=O` (centres undefined), 3.38.
Compound `CC#Cc1ccnc(-c2cc(C3(C4CC4)N=C(C)C(N)=N3)ccc2O)c1` (centres undefined) yielded a logD of 3.6.
For `CC#Cc1cncc(-c2cccc(C3(C4CC4)N=C(C)C(N)=N3)c2)c1` (centres undefined), the logD worked out at 3.3.
On to `O=C(NC[C@@H](O)CN1CCC(Oc2ccc(Cl)c(Cl)c2)CC1)c1cn2cc(F)ccc2n1`, for which the logD worked out at 3.33.
For the compound `N#C/C(=C(\N)Sc1ccc(N)cc1)c1ccccc1C(F)(F)F`, the logD came to 3.4.
Regarding `O=C(Nc1ccc(F)cc1F)c1cc(Cl)ccc1O`, the logD was determined as 3.6.
On to `O=S(=O)(c1ccccc1)C1(c2cc(N3CCOCC3)nc(-c3cccc4[nH]ccc34)n2)CC1`, for which the logD amounted to 3.4.
On to `NC1(C(=O)NC(c2ccc(Cl)cc2)C2CC2)CCN(c2ncnc3[nH]ccc23)CC1` (centres undefined), for which the logD stood at 3.4.
To `COCCNC(=O)c1ccc(Nc2ncc3cc(-c4ccnc(C)c4)ccc3n2)cc1` belongs 3.56.
For `CC(=O)N[C@H](C)c1ccc(Nc2ncc3cc(-c4ccncc4)cc(C)c3n2)cc1` the value was 3.46.
In turn, `O=C(NC1Cc2ccccc2N(CCCO)C1=O)c1cc2cc(Cl)sc2[nH]1` (centres undefined) registered a logD of 3.49. This logD and that of the compound before are within 0.2 log units of each other.
Take `O=C(NC1Cc2ccccc2N(C[C@@H](O)CO)C1=O)c1cc2cc(Cl)sc2[nH]1` (some centres undefined): the logD was 3.37.
Compound `COc1ccc2c(C)cc(N[C@H]3CCC[C@H](NCc4cccc(OC(F)(F)F)c4)C3)nc2c1` gave a log distribution coefficient (logD) of 3.61.
With `O=C1CCCc2nc(C#Cc3ccccc3)ccc21`, the logD stood at 3.53.
In the case of `CCCc1c(OCCCSc2ccc(CC(=O)O)cc2Cl)ccc(C(=O)CC)c1O`, the logD was 3.57.
Consider `Cc1cnc2c(N[C@H](C)CO)nc(SCc3cccc(F)c3F)nc2n1`, for which the logD was found to be 3.55. The logD values of the last two compounds are within 0.2 log units of each other.
Compound `FC(F)(F)c1cc(CO[C@H]2CCCN[C@H]2c2ccccc2)cc(C(F)(F)F)c1` came in with a logD of 3.6.
The compound `COC(=O)[C@H](Cc1ccc([N+](=O)[O-])cc1)NC(=O)c1cccc2ccccc12` showed a logD of 3.58.
To `C1CCc2c(c3c(N4CCCC4)nc(N4CCCC4)nc3n2CCN2CCOCC2)C1` belongs 3.6.
For `C[C@@H]1CCCN1CCc1cc2cc(-c3ccc(C#N)cc3)ccc2o1`, the logD stood at 3.51. The logD values of the last two compounds are within 0.2 log units of each other.
In the case of `CC(C)Cn1c(=O)n(C)c(=O)c2c(S(=O)(=O)N3CC[C@@H](O)C3)c(Cc3ccccc3C(F)(F)F)sc21`, the logD came out at 3.32. The logD values of the last two compounds are within 0.2 log units of each other.
With `O=C(Nc1nc2ccccc2n1CCN1CCOCC1)c1cccc([N+](=O)[O-])c1`, the logD is 3.3. The logD values of the last two compounds are within 0.2 log units of each other.
`COc1cc2ncnc(Nc3cc(Cl)ccc3F)c2cc1OCCCN1CCOCC1`: the pH-dependent lipophilicity (logD) is 3.4.
`COc1ccc(Cl)c(Nc2ncnc3cc(OC)cc(OC4CCN(C)CC4)c23)c1`: the logD is 3.6.
To `C[C@H](CO)Nc1nc(SCc2cccc(Cl)c2)nc2nc(N)sc12` belongs 3.31; to `CCNC(=O)OC[C@@H](C)N(c1cc(Cl)ccc1CO)S(=O)(=O)c1ccc(Cl)cc1`, 3.4.
`C[C@H](CO)Nc1nc(SCc2cccc(F)c2F)nc2[nH]c(=O)c(C#N)cc12` gave a logD of 3.32.
`Cc1cnc2nc(SCc3cccc(F)c3F)nc(N[C@H](C)CO)c2n1` registered a logD of 3.5.
`CC(CNS(=O)(=O)C(C)C)c1ccc(-c2ccc(C#N)cc2)cc1` (centres undefined): the logD is 3.5.
Take `Cc1ncc(-c2ccnc(Nc3ccc(C#N)cc3)n2)n1C(C)C`: the pH-dependent lipophilicity (logD) stood at 3.62. This logD and that of the compound before are within 0.2 log units of each other.
Take `CNC(=O)c1ccc(Nc2ncc(F)c(-c3cnc(C)n3C(C)C)n2)cc1F`: the logD was found to be 3.31.
`C(=C\c1c(-c2ccccc2)nc2sccn12)/c1ccncn1` returned a logD of 3.4.
`COc1cc2ncc(C(N)=O)c(Nc3ccc(C)cc3F)c2cc1OC` registered a logD of 3.34.
For `COc1cc2ncc(C(N)=O)c(Nc3cccc(Cl)c3F)c2cc1OC` the value was 3.6; for `COc1cc2c(Nc3cccc(Cl)c3Cl)c(C(N)=O)cnc2cc1NCCN(C)C`, 3.41.
For `CC(C)Oc1ccc(S(C)(=O)=O)cc1C(=O)N1CCN(c2ccc(C(F)(F)F)cc2)CC1` the value was 3.33.
In turn, `COc1cc2ncnc(Nc3cccc(C)c3)c2cc1OC` yielded a logD of 3.5. The logD values of the last two compounds are within 0.2 log units of each other.
In turn, `CCOc1ccc2nc(NC(=O)CC)sc2c1` showed a logD of 3.4.
Consider `O=c1c(-c2ccc3c(c2)OCO3)coc2cc(O)cc(O)c12`, for which the logD is 3.5.
In turn, `Cn1c(CN2CCC(c3ccccc3)CC2)nc2ccccc21` showed a logD of 3.6.
`Cn1c(CN2CCN(c3ccc(Cl)cc3)CC2)nc2ccccc21` displayed a logD of 3.54. The logD values of the last two compounds are within 0.2 log units of each other.
For the compound `Cc1cccc(C#Cc2ccccc2)n1`, the log distribution coefficient (logD) was 3.6. This logD and that of the compound before are within 0.2 log units of each other.
On to `COc1cc(C(=O)c2cc(Cl)ccc2N)cc(OC)c1OC`, for which the logD stood at 3.38.
To `COc1cc2ncnc(NCc3cccc(C)c3)c2cc1OC` belongs 3.5.
